According to patent US10047075B2, “Pyridines and pyrimidines and use thereof” (Purdue Pharma L.P., priority 2014, dated 2018):
Like-named read-outs stand apart in the source and are kept apart here.

Biological target: human Nav1.7 (Homo sapiens, UniProt Q15858)
Assay: FLIPR or FLIPR TETRA sodium dye assay with KCl and test article pre-incubation (CoroNa Green, veratridine + scorpion venom)
Assay type: cell-based
[1] = recombinant human Nav1.7 in HEK293 cells

human Nav1.7, sequence (Q15858 1-1977 isoform Q15858-3): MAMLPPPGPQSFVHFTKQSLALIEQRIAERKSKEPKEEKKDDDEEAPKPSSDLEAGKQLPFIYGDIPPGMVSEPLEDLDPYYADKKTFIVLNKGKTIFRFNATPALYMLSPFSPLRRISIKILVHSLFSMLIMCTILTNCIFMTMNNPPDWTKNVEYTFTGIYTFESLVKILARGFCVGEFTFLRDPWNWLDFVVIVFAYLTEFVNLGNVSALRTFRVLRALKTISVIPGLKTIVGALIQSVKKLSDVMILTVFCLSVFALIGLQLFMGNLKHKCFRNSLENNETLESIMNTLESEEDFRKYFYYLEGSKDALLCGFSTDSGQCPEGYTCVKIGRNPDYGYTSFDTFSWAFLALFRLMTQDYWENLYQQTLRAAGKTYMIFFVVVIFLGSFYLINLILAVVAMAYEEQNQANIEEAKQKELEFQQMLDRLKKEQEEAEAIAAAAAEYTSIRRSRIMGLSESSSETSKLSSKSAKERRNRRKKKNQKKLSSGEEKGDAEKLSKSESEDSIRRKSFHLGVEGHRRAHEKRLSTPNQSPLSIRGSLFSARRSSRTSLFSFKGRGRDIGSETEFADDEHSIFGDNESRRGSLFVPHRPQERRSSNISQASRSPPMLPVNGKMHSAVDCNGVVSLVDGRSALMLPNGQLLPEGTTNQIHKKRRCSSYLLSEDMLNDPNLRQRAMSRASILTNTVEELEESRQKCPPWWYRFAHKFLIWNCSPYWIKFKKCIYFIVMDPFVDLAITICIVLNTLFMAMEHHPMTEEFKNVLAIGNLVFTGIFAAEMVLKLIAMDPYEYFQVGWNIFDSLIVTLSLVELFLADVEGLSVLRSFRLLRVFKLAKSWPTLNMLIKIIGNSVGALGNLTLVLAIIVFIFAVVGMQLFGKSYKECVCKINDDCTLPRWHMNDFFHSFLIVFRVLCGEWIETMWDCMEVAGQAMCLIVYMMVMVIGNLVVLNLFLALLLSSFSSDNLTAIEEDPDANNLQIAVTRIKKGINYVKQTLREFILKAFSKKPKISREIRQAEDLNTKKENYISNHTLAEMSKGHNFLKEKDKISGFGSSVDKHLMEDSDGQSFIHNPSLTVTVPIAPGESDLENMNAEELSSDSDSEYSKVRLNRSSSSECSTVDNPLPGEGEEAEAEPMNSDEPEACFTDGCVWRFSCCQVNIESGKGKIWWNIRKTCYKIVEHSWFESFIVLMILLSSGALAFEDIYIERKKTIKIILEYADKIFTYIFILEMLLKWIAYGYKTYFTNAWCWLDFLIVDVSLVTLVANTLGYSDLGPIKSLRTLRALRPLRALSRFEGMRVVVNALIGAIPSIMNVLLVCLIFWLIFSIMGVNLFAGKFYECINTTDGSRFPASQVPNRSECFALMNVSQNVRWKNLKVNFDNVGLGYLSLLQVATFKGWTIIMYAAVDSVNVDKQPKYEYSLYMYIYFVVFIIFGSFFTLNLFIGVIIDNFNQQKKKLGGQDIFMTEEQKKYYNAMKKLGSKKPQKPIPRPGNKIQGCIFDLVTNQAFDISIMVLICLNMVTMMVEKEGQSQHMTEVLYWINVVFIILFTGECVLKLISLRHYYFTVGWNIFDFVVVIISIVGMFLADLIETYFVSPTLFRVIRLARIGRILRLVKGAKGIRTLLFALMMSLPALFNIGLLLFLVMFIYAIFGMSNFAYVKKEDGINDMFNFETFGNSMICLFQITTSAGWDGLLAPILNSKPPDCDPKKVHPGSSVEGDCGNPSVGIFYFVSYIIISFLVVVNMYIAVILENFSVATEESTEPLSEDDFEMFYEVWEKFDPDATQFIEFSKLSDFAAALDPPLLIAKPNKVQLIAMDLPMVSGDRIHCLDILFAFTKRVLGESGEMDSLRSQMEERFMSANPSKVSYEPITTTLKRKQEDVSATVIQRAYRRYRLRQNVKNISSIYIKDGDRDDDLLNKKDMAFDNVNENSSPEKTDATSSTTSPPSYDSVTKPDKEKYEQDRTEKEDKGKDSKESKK

SMILES	IC50 [1] [µM]	IC50 [µM]
NC(=O)c1cccc(-c2ccc3c(c2)CCCCN3c2ccc(C(F)(F)F)cc2)n1 [Compound 58, 6-(1-(4-(trifluoromethyl)phenyl)-2,3,4,5-tetrahydro-1H-benzo[b]azepin-7-yl)picolinamide]	0.357 ± 0.015	–
NC(=O)c1cccc(-c2ccc3c(c2)COCCN3c2ccc(C(F)(F)F)cc2)n1 [Compound 61, 6-(1-(4-(trifluoromethyl)phenyl)-1,2,3,5-tetrahydrobenzo[e][1,4]oxazepin-7-yl)picolinamide]	0.404 ± 0.036	–
C[C@H](Nc1cc(C(N)=O)nc(-c2ccc3c(c2)CCCCN3c2ccc(C(F)(F)F)cc2)n1)C(N)=O [Compound 64, (S)-6-((1-amino-1-oxopropan-2-yl)amino)-2-(1-(4-(trifluoro-methyl)phenyl)-2,3,4,5-tetrahydro-1H-benzo[b]azepin-7-yl)pyrimidine-4-carboxamide]	1.04 ± 0.077	–
NC(=O)c1cccc(-c2ccc3c(c2)OCCCN3c2ccc(C(F)(F)F)cc2)n1 [Compound 65, 6-(5-(4-(trifluoromethyl)-phenyl)-2,3,4,5-tetrahydrobenzo[b][1,4]oxazepin-8-yl)picolinamide]	0.338 ± 0.034	–
NC(=O)c1cccc(-c2ccc3c(c2)CCCN3c2ccc(C(F)(F)F)cc2)n1 [Compound 66, 6-(1-(4-(trifluoromethyl)-phenyl)-1,2,3,4-tetrahydroquinolin-6-yl)picolinamide]	0.913 ± 0.024	–
NC(=O)c1cccc(-c2ccc3c(c2)CCCN3c2cccc(C(F)(F)F)c2)n1 [Compound 67, 6-(1-(3-(trifluoromethyl)-phenyl)-1,2,3,4-tetrahydroquinolin-6-yl)picolinamide]	> 20	–
NC(=O)c1cccc(-c2ccc3c(c2)CCN3c2ccc(C(F)(F)F)cc2)n1 [Compound 68, 6-(1-(4-(trifluoromethyl)-phenyl)indolin-5-yl)-picolinamide]	> 20	–
NC(=O)c1cccc(-c2ccc3c(c2)OCC=C3c2ccc(C(F)(F)F)cc2)n1 [Compound 69, 6-(4-(4-(trifluoromethyl)-phenyl)-2H-chromen-7-yl)picolinamide]	0.524 ± 0.077	–
C[C@H](Nc1cc(C(N)=O)nc(-c2ccc3c(c2)OC[C@H](O)[C@H]3c2ccc(C(F)(F)F)cc2)n1)C(N)=O [Compound 71, 6-(((S)-1-amino-1-oxopropan-2-yl)amino)-2-((3R,4S)-3-hydroxy-4-(4-(trifluoromethyl)phenyl)chroman-7-yl)pyrimidine-4-carboxamide]	> 20	–
NC(=O)c1cc(CN[C@H]2CCNC2=O)nc(-c2ccc3c(c2)OCCCN3c2ccc(C(F)(F)F)cc2)n1 [Compound 72, (S)-6-(((2-oxopyrrolidin-3-yl)amino)methyl)-2-(5-(4-(trifluoromethyl)phenyl)-2,3,4,5-tetrahydrobenzo[b][1,4]oxazepin-8-yl)pyrimidine-4-carboxamide]	0.11 ± 0.022	–
OC[C@@H](O)c1cccc(-c2ccc3c(c2)CCCCN3C2CCCCC2)n1 [Compound 73, (S)-1-(6-(1-cyclohexyl-2,3,4,5-tetrahydro-1H-benzo[b]azepin-7-yl)pyridin-2-yl)ethane-1,2-diol]	0.331 ± 0.031	–
C[C@H](Nc1cc(C(N)=O)nc(-c2ccc3c(c2)CCCCN3C2CCCCC2)n1)C(N)=O [Compound 74, (S)-6-((1-amino-1-oxopropan-2-yl)amino)-2-(1-cyclohexyl-2,3,4,5-tetrahydro-1H-benzo[b]azepin-7-yl)pyrimidine-4-carboxamide]	4.88 ± 0.47	–
OC[C@@H](O)c1cccc(-c2ccc3c(c2)CCCCN3C2CCOCC2)n1 [Compound 75, (S)-1-(6-(1-(tetrahydro-2H-pyran-4-yl)-2,3,4,5-tetrahydro-1H-benzo[b]azepin-7-yl)pyridin-2-yl)ethane-1,2-diol]	3.35 ± 0.244	–
OC[C@@H](O)c1cccc(-c2ccc3c(c2)CCCCN3C2CCC(F)(F)CC2)n1 [Compound 76, (S)-1-(6-(1-(4,4-difluorocyclohexyl)-2,3,4,5-tetrahydro-1H-benzo[b]azepin-7-yl)pyridin-2-yl)ethane-1,2-diol]	0.526 ± 0.034	–
O=C1Cc2cc(-c3cccc([C@H](O)CO)n3)ccc2N1Cc1ccc(C(F)(F)F)cc1 [Compound 77, (S)-5-(6-(1,2-dihydroxyethyl)pyridin-2-yl)-1-(4-(trifluoromethyl)-benzyl)indolin-2-one]	7.8 ± 0.691	–
O=S(=O)(c1ccc(C(F)(F)F)cc1)N1CCCc2cc(-c3cccc([C@H](O)CO)n3)ccc21 [Compound 78, (S)-1-(6-(1-((4-(trifluoromethyl)-phenyl)sulfonyl)-1,2,3,4-tetrahydroquinolin-6-yl)pyridin-2-yl)ethane-1,2-diol]	0.857 ± 0.103	–

SMILES	IC50 [1] [µM]	IC50 [µM]
C[C@H](Nc1cc(C(N)=O)nc(-c2ccc3c(c2)CCCN3c2ccc(C(F)(F)F)cc2)n1)C(N)=O [Compound 80, (S)-6-((1-amino-1-oxopropan-2-yl)amino)-2-(1-(4-(trifluoro-methyl)phenyl)-1,2,3,4-tetrahydroquinolin-6-yl)pyrimidine-4-carboxamide]	0.653 ± 0.118	–
OC[C@@H](O)c1cccc(-c2ccc3c(c2)CCCN3Cc2ccc(C(F)(F)F)cc2)n1 [Compound 81, (S)-1-(6-(1-(4-(trifluoromethyl)benzyl)-1,2,3,4-tetrahydroquinolin-6-yl)pyridin-2-yl)ethane-1,2-diol]	0.091 ± 0.025	–
NC(=O)c1cc(O[C@H]2CCNC2=O)nc(-c2ccc3c(c2)OCCCN3c2ccc(C(F)(F)F)cc2)n1 [Compound 82, (S)-6-((2-oxopyrrolidin-3-yl)oxy)-2-(5-(4-(trifluoromethyl)phenyl)-2,3,4,5-tetrahydrobenzo-[b][1,4]oxazepin-8-yl)pyrimidine-4-carboxamide]	0.211 ± 0.038	–
NC(=O)[C@H](O)[C@@H](O)c1cccc(-c2ccc3c(c2)OCCCN3c2ccc(C(F)(F)F)cc2)n1 [Compound 83, (2R,3S)-2,3-dihydroxy-3-(6-(5-(4-(trifluoromethyl)phenyl)-2,3,4,5-tetrahydrobenzo[b][1,4]-oxazepin-8-yl)pyridin-2-yl)propanamide]	0.213 ± 0.013	–
NC(=O)c1cccc(-c2ccc3c(c2)CNCCN3c2ccc(C(F)(F)F)cc2)n1 [Compound 84, 6-(1-(4-(trifluoromethyl)-phenyl)-2,3,4,5-tetrahydro-1H-benzo[e][1,4]diazepin-7-yl)picolinamide]	1.92 ± 0.296	–
C[C@H](Nc1cc(C(N)=O)nc(-c2ccc3c(c2)CNCCN3c2ccc(C(F)(F)F)cc2)n1)C(N)=O [Compound 88, (S)-6-((1-amino-1-oxopropan-2-yl)amino)-2-(1-(4-(trifluoromethyl)phenyl)-2,3,4,5-tetrahydro-1H-benzo[e][1,4]diazepin-7-yl)pyrimidine-4-carboxamide]	> 20	–
C[C@H](Nc1cc(C(N)=O)nc(-c2ccc3c(c2)CN(CC2CC2)CCN3c2ccc(C(F)(F)F)cc2)n1)C(N)=O [Compound 89, (S)-6-((1-amino-1-oxopropan-2-yl)amino)-2-(4-(cyclopropylmethyl)-1-(4-(trifluoromethyl)phenyl)-2,3,4,5-tetrahydro-1H-benzo[e][1,4]diazepin-7-yl)pyrimidine-4-carboxamide]	> 20	–
C[C@H](Nc1cc(C(N)=O)nc(-c2ccc3c(c2)CN(C)CCN3c2ccc(C(F)(F)F)cc2)n1)C(N)=O [Compound 90, (S)-6-((1-amino-1-oxopropan-2-yl)amino)-2-(4-methyl-1-(4-(trifluoromethyl)phenyl)-2,3,4,5-tetrahydro-1H-benzo[e][1,4]diazepin-7-yl)pyrimidine-4-carboxamide]	> 20	–
CCN(CC)C(=O)N1CCN(c2ccc(C(F)(F)F)cc2)c2ccc(-c3cccc(C(N)=O)n3)cc2C1 [Compound 92, 7-(6-carbamoylpyridin-2-yl)-N,N-diethyl-1-(4-(trifluoromethyl)phenyl)-1,2,3,5-tetrahydro-4H-benzo[e][1,4]diazepino-4-carboxamide]	0.813 ± 0.057	–
NC(=O)c1cccc(-c2ccc3c(c2)CN(C(=O)C2CC2)CCN3c2ccc(C(F)(F)F)cc2)n1 [Compound 93, 6-(4-(cyclopropanecarbonyl)-1-(4-(trifluoromethyl)phenyl)-2,3,4,5-tetrahydro-1H-benzo[e][1,4]diazepin-7-yl)picolinamide]	> 20	–
CC(=O)N1CCN(C2CCCCC2)c2ccc(-c3cccc([C@H](O)CO)n3)cc2C1 [Compound 94, (S)-1-(1-cyclohexyl-7-(6-(1,2-dihydroxyethyl)pyridin-2-yl)-1,2,3,5-tetrahydro-4H-benzo[e][1,4]diazepin-4-yl)ethan-1-one]	8.8 ± 1.92	–
CS(=O)(=O)N1CCN(c2ccc(C(F)(F)F)cc2)c2ccc(-c3cccc([C@H](O)CO)n3)cc2C1 [Compound 95, (S)-1-(6-(4-(methylsulfonyl)-1-(4-(trifluoromethyl)phenyl)-2,3,4,5-tetrahydro-1H-benzo[e][1,4]diazepin-7-yl)pyridin-2-yl)ethane-1,2-diol]	–	0.469 ± 0.017
CCNC(=O)N1CCN(c2ccc(C(F)(F)F)cc2)c2ccc(-c3cccc([C@H](O)CO)n3)cc2C1 [Compound 97, (S)-7-(6-(1,2-dihydroxyethyl)pyridin-2-yl)-N-ethyl-1-(4-(trifluoromethyl)phenyl)-1,2,3,5-tetrahydro-4H-benzo[e][1,4]diazepin-4-carboxamide]	2.62 ± 0.1	–
CN(C)CC(=O)N1CCN(c2ccc(C(F)(F)F)cc2)c2ccc(-c3cccc([C@H](O)CO)n3)cc2C1 [Compound 100, (S)-1-(7-(6-(1,2-dihydroxyethyl)pyridin-2-yl)-1-(4-(trifluoromethyl)phenyl)-1,2,3,5-tetrahydro-4H-benzo[e][1,4]diazepin-4-yl)-2-(dimethylamino)ethan-1-one]	7.07 ± 1.45	–
N#CCN1CCN(c2ccc(C(F)(F)F)cc2)c2ccc(-c3cccc(C(N)=O)n3)cc2C1 [Compound 102, 6-(4-(cyanomethyl)-1-(4-(trifluoromethyl)phenyl)-2,3,4,5-tetrahydro-1H-benzo[e][1,4]diazepin-7-yl)picolinamide]	0.857 ± 0.075	–
NC(=O)CN1CCN(C2CCCCC2)c2ccc(-c3cccc([C@H](O)CO)n3)cc2C1 [Compound 104, (S)-2-(1-cyclohexyl-7-(6-(1,2-dihydroxyethyl)pyridin-2-yl)-1,2,3,5-tetrahydro-4H-benzo[e][1,4]diazepin-4-yl)acetamide]	2.61 ± 0.047	–
